Data set [1] is described as follows: pKa of NH proton by UV absorbance pH titration. Type of data set: physicochemical. Particulars: dilute phosphate buffer.
The nature of data set [2]: Stability in buffer at 4°C. Type of data set: physicochemical. To be noted: 0.01 M Tris/HCl pH 7.4, concentration close to saturation.
Data set [3] addresses human α1β2γ2L GABAA receptor (Homo sapiens, UniProt P14867+P18507+P47870). The data set is classed as cell-based.
In a further data set the test system is tadpoles. Particulars: cited from earlier work.
The next data set addresses T1, human α1β3 GABAAR (Homo sapiens, UniProt P14867+P28472).
T1 sequence (P14867 28-456): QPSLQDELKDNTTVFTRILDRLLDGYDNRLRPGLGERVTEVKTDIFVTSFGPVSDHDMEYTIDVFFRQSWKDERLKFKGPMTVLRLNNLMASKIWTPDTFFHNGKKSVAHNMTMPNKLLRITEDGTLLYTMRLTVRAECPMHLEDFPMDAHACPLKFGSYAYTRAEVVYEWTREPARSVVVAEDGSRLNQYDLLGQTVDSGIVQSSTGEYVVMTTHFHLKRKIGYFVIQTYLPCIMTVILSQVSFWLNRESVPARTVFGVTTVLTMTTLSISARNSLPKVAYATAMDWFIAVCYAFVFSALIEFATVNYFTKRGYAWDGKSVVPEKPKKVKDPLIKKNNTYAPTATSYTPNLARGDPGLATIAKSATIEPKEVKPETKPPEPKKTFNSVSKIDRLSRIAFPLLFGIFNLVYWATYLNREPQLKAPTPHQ
T1 sequence (P28472 26-473): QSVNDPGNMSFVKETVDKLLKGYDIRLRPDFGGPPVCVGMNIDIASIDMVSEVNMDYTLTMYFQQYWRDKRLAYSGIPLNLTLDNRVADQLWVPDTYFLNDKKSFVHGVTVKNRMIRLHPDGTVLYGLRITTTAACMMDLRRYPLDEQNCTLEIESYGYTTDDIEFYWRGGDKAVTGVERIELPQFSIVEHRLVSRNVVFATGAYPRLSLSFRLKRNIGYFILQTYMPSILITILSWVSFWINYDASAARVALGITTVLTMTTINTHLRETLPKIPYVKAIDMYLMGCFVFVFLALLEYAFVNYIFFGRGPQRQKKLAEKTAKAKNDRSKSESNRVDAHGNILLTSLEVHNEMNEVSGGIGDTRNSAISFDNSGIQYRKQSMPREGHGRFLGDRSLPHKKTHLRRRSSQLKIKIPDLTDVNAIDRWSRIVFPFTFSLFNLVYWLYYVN
Particulars: cited from earlier work.

For data set [4] the following is noted: cited from earlier work.
For data set [5] the following is noted: cited from earlier work. The source holds these as a separate data set.
The conditions of data set [6]: cited from earlier work. This is another data set of the same source.
Another data set relates to GABAA receptor. To be noted: concentrations close to anesthetic EC50 (65 μM); cited from earlier work.
Setting [7] is: read-out: general anesthetic EC50.
The mark [8] stands for this setting: read-out: EC50, tadpole loss of righting reflex.

In brackets after ≈: the same amount, converted by molar mass. Like-named read-outs stand apart in the source and are kept apart here.

The values that follow come from PMC3717557 (Journal of medicinal chemistry, 2012).

human α1β2γ2L GABAA receptor, sequence (P47870 25-512 limits assumed, one chain of several): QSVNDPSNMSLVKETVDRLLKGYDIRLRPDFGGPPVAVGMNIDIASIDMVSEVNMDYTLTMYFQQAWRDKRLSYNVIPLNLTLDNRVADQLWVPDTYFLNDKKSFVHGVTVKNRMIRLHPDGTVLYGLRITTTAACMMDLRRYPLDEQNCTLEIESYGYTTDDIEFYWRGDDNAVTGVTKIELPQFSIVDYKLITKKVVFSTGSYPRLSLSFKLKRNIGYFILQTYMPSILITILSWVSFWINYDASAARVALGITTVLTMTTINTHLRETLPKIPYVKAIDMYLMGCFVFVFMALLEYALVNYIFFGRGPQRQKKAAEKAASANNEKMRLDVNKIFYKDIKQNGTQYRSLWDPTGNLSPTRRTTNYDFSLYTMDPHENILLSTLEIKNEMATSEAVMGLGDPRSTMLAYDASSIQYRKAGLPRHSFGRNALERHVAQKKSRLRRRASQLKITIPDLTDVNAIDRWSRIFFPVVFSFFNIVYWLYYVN
human α1β2γ2L GABAA receptor, sequence (P18507 40-475, one chain of several): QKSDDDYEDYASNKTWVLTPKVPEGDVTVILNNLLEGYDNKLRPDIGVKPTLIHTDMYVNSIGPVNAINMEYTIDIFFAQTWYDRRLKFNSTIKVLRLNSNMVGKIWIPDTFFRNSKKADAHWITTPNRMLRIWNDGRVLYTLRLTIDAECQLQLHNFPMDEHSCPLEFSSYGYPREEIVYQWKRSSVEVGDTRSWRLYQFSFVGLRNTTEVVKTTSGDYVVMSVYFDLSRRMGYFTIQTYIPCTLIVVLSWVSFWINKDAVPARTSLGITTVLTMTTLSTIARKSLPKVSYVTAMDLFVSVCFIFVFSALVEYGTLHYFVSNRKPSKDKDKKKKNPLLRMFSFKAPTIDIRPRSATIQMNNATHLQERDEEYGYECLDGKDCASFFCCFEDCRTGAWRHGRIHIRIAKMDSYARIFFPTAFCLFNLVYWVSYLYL

`C=CCC1(c2cccc(C3(C(F)(F)F)N=N3)c2)C(=O)NC(=O)N(C)C1=O` (racemic) [(±)-14, (±)-5-Allyl-1-methyl-5-[3-(3-trifluoromethyl-3H-diazirin-3-yl)-phenyl]-pyrimidine-2,4,6-trione] showed a pKa in data set [1] of 7.48 ± 0.08. In addition, the “time stable in buffer” value in data set [2] is on record as “at least 2.5 days”. In the case of `NCCCC(=O)O` [GABA, γ-aminobutyric acid], in data set [3] (GABA alone), the “GABA concentration response nH” value turned out to be 1.8 ± 0.1. Take `CCOC(=O)c1cncn1[C@H](C)c1ccccc1` [R-(+)-etomidate]: in the data set on tadpoles (setting [7]), the EC50 was 2.3 µM. As to `C=CC[C@@]1(c2cccc(C3(C(F)(F)F)N=N3)c2)C(=O)NC(=O)N(C)C1=O` [R-(−)-14], in data set [3] (8 μM compound), the “GABA nH in the presence of compound” value turned out to be 1.0 ± 0.1. With `C[C@H](c1ccccc1)n1cncc1C(=O)OCc1ccc(C2(C(F)(F)F)N=N2)cc1` [aryldiazirine analog of etomidate], the “efficiency of α1β3 GABAAR subunit photolabeling” value on human α1β3 GABAAR was 0.5%. For the molecule `CCC1(c2ccccc2)C(=O)NC(=O)N(C)C1=O` (stereo not drawn) [mephobarbital], in the data set on tadpoles (setting [8]), the EC50 was 90 µM. The solubility in water in data set [4] is 600 µM (≈ 148 µg/mL). Moreover, in [5], the octanol/water partition coefficient is reported as 69. Moreover, the pKa in data set [6] was 7.65. For the molecule `C=CCC1(C(C)C#CCC)C(=O)N=C(O)N(C)C1=O` (stereo not drawn) [methohexital], the EC50 in the data set on tadpoles (setting [8]) is 20 µM. On to `CCCC(C)C1(CC)C(=O)NC(=O)NC1=O` (stereo not drawn) [pentobarbital, 5-ethyl-5-(pentan-2-yl)pyrimidine-2,4,6(1H,3H,5H)-trione], for which, in the data set with GABAA receptor, the “fold potentiation of 10 μM GABA currents” value is on record as 4-6 fold. The EC50 in the data set with tadpoles (read-out: EC50 producing anesthesia in tadpoles) was about 140 µM. Turning to `CCC1(c2ccccc2)C(=O)NC(=O)NC1=O` [phenobarbital], in the data set on tadpoles (setting [8]), the EC50 was 3300 µM.

In the case of `CC(C)c1cccc(C(C)C)c1O` [propofol], the EC50 in the data set with tadpoles (setting [7]) was 2.2 µM.
